GI50 and TGI data for nine molecules are collected here from PubChem BioAssay (NCI).

Molecules are shown by their SMILES. Where “and” joins values, the source holds several entries; their conditions need not be identical. Equal entries are not always repeated.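 Each compound was tested at five concentrations against cells in 96-well plates for 48 hours. GI50: concentration for 50% inhibition of growth. TGI marks complete inhibition of growth.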 Bounds are passed on as bounds.

Test systems include NCI-H460 lung; K-562 leukemia; T-47D breast; SK-OV-3 ovarian; BT-549 breast; OVCAR-8 ovarian; CAKI-1 renal; UACC-257 melanoma; OVCAR-3 ovarian; MCF7 breast.
What all share (experiment): NCI tumour cell line growth inhibition, 48 h

With `COc1cc(/C=C/C(=O)c2c(C)n([O-])c3ccccc3[n+]2=O)cc(OC)c1OC`, the GI50 in the assay with NCI-H460 lung is 3.63 µM; with K-562 leukemia, 5.88 µM; with T-47D breast it was 8.71 µM; in the assay with SK-OV-3 ovarian it was 11 µM; in the assay with BT-549 breast, 3.18 µM; in the assay on OVCAR-8 ovarian, 4.43 µM. Moreover, the GI50 in the assay on CAKI-1 renal was 7.61 µM; with UACC-257 melanoma, 6.48 µM; with OVCAR-3 ovarian, 5.17 µM; with MCF7 breast, 3.18 µM. In addition, the TGI with NCI-H460 lung is 13.1 µM; in the assay with K-562 leukemia, over 100 µM; in the assay on T-47D breast, 28.7 µM; with SK-OV-3 ovarian, 25.5 µM; in the assay on BT-549 breast, 13.5 µM; in the assay on OVCAR-8 ovarian it was 17.7 µM. Also, the TGI stood at 20.7 µM in the assay on CAKI-1 renal, 20.5 µM in the assay with UACC-257 melanoma, 18.6 µM with OVCAR-3 ovarian and 13.4 µM in the assay on MCF7 breast.
Turning to `O=C1/C(=C/c2ccc(F)cc2)COc2ccc(O)c(O)c21`, the GI50 is 3.33 µM with NCI-H460 lung; 0.354 µM with K-562 leukemia; 2.4 µM in the assay on T-47D breast; 4.45 µM in the assay on SK-OV-3 ovarian; 2.96 µM in the assay with BT-549 breast; 2.16 µM in the assay on OVCAR-8 ovarian. Also, the GI50 in the assay with CAKI-1 renal is 1.65 µM; in the assay on UACC-257 melanoma, 2.99 µM; with OVCAR-3 ovarian it was 0.864 µM; with MCF7 breast, 1.02 µM. In addition, the TGI in the assay on NCI-H460 lung was over 100 µM; in the assay on K-562 leukemia, over 100 µM; in the assay on T-47D breast, 9.67 µM; with SK-OV-3 ovarian, over 100 µM; with BT-549 breast, 8.73 µM; in the assay on OVCAR-8 ovarian, over 100 µM. Besides, the TGI was 5.61 µM with CAKI-1 renal, 17.7 µM with UACC-257 melanoma, 9.4 µM with OVCAR-3 ovarian and over 100 µM in the assay on MCF7 breast.
For the molecule `NC(CSC(c1ccccc1)(c1ccccc1)c1ccccc1)C(=O)O` (stereo not given), the GI50 in the assay on NCI-H460 lung is 2.07 µM; with K-562 leukemia, 1.76 µM and 0.775 µM; with T-47D breast it was 3.46 µM; in the assay with SK-OV-3 ovarian it was 0.425 µM; in the assay with BT-549 breast, 4.88 µM; in the assay on OVCAR-8 ovarian, 1.93 µM and 1.05 µM. Moreover, the GI50 in the assay on CAKI-1 renal was 15.2 µM and 7.17 µM; in the assay with UACC-257 melanoma it was 1.18 µM and 0.789 µM; in the assay on OVCAR-3 ovarian, 2.46 µM and 2.18 µM; in the assay with MCF7 breast it was 0.665 µM and 0.416 µM. The TGI is 21 µM and 15.8 µM in the assay with NCI-H460 lung; 31.9 µM and > 100 µM with K-562 leukemia; 54.9 µM and 53.4 µM in the assay on T-47D breast; 14.8 µM and > 100 µM in the assay on SK-OV-3 ovarian; 57.8 µM and > 100 µM in the assay on BT-549 breast; 51.5 µM and 35.7 µM and > 100 µM in the assay on OVCAR-8 ovarian. In addition, the TGI was 51.6 µM and > 100 µM with CAKI-1 renal; 53.8 µM and 94.6 µM and > 100 µM in the assay with UACC-257 melanoma; 9.48 µM and 27.9 µM and 13 µM in the assay with OVCAR-3 ovarian; 67.8 µM and > 100 µM in the assay with MCF7 breast.
For the molecule `O=C(CSSCC(=O)c1ccc(Cl)cc1)c1ccc(Cl)cc1`, the GI50 was 3.35 µM in the assay on NCI-H460 lung; 3.28 µM in the assay with K-562 leukemia; 8.66 µM with T-47D breast; 4.34 µM in the assay on SK-OV-3 ovarian; 8.92 µM in the assay on BT-549 breast; 5.06 µM in the assay on OVCAR-8 ovarian. The GI50 was 4.99 µM with CAKI-1 renal, 5.18 µM in the assay on UACC-257 melanoma, 5.39 µM with OVCAR-3 ovarian and 3.76 µM with MCF7 breast. Besides, the TGI is 26.9 µM with NCI-H460 lung; over 100 µM in the assay with K-562 leukemia; 45.2 µM in the assay with T-47D breast; 22.4 µM in the assay on SK-OV-3 ovarian; 39.9 µM with BT-549 breast; 23.2 µM with OVCAR-8 ovarian. The TGI with CAKI-1 renal was 28.6 µM; in the assay on UACC-257 melanoma, 34.4 µM; in the assay on OVCAR-3 ovarian it was 26.1 µM; with MCF7 breast, 17.8 µM.
Regarding `Cc1cccc(CNc2c3ccccc3nc3ccccc23)c1`, the GI50 in the assay with NCI-H460 lung was 1.99 µM; in the assay on K-562 leukemia, 2.23 µM; in the assay on T-47D breast, 1.83 µM; in the assay on SK-OV-3 ovarian, 2.61 µM; in the assay with BT-549 breast, 2.34 µM; in the assay with OVCAR-8 ovarian it was 2.48 µM. The GI50 is 1.61 µM with CAKI-1 renal, 2.11 µM with UACC-257 melanoma, 2.29 µM in the assay on OVCAR-3 ovarian and 1.9 µM in the assay with MCF7 breast. For the same molecule, the TGI in the assay on NCI-H460 lung was found to be 5.03 µM; in the assay with K-562 leukemia, 12.5 µM; in the assay with T-47D breast, 4.61 µM; with SK-OV-3 ovarian, 10.5 µM; with BT-549 breast, 6.32 µM; in the assay with OVCAR-8 ovarian it was 9.82 µM. Further, the TGI in the assay on CAKI-1 renal was 5.03 µM; with UACC-257 melanoma it was 5.05 µM; in the assay with OVCAR-3 ovarian, 5.92 µM; with MCF7 breast it was 4.88 µM.
`O=C1OC(c2ccc([N+](=O)[O-])cc2)=N/C1=C\c1ccc(Cl)cc1`: the TGI in the assay with NCI-H460 lung, with K-562 leukemia, in the assay with T-47D breast, with SK-OV-3 ovarian, with BT-549 breast and with OVCAR-8 ovarian was over 100 µM each time. Also, the TGI in the assay on CAKI-1 renal, in the assay on UACC-257 melanoma, in the assay with OVCAR-3 ovarian and with MCF7 breast was over 100 µM in each case.
Turning to `CCN(Cc1cc(Cl)cc(C)c1O)Cc1c(O)ccc2ccccc12`, the TGI with NCI-H460 lung came to 36 µM; in the assay with K-562 leukemia, 65.4 µM; in the assay on T-47D breast it was 35.8 µM; with SK-OV-3 ovarian it was 29.8 µM; with BT-549 breast, 27.4 µM; in the assay with OVCAR-8 ovarian, 37.7 µM. In addition, the TGI is 28.8 µM in the assay on CAKI-1 renal, 30.4 µM in the assay on UACC-257 melanoma, 29 µM with OVCAR-3 ovarian and 39.1 µM with MCF7 breast.
As to `O=C(Nc1cc(Cl)c(I)c(Cl)c1)C(F)(F)F`, the TGI with NCI-H460 lung is over 100 µM; in the assay on K-562 leukemia it was 81.8 µM; in the assay with T-47D breast, 97.6 µM; with SK-OV-3 ovarian, 58.9 µM; in the assay with BT-549 breast, 63 µM; in the assay on OVCAR-8 ovarian it was 56.8 µM. The TGI was 56.5 µM in the assay on CAKI-1 renal, over 100 µM with UACC-257 melanoma, 81.2 µM in the assay on OVCAR-3 ovarian and over 100 µM in the assay with MCF7 breast.
In the case of `O=C(O)CCCN1C(=O)/C(=C/C(Cl)=C/c2ccccc2)SC1=S`, the GI50 was 2.47 µM with NCI-H460 lung; 1.52 µM in the assay with K-562 leukemia; 1.89 µM with T-47D breast; 6.24 µM in the assay with SK-OV-3 ovarian; 1.91 µM in the assay with BT-549 breast; 1.48 µM in the assay with OVCAR-8 ovarian. For the same molecule, the GI50 in the assay on CAKI-1 renal is 1.66 µM; in the assay with UACC-257 melanoma, 1.75 µM; in the assay on OVCAR-3 ovarian it was 1.39 µM; in the assay on MCF7 breast, 0.6 µM. The TGI turned out to be 6.76 µM in the assay on NCI-H460 lung; 16.3 µM in the assay with K-562 leukemia; 5.38 µM with T-47D breast; 19 µM in the assay on SK-OV-3 ovarian; 4.8 µM in the assay on BT-549 breast; 13.8 µM in the assay with OVCAR-8 ovarian. Moreover, the TGI in the assay on CAKI-1 renal came to 3.76 µM; in the assay with UACC-257 melanoma, 6.8 µM; in the assay with OVCAR-3 ovarian, 3.21 µM; in the assay with MCF7 breast, 11.4 µM.
